Test results from ChEMBL document CHEMBL5226333, “Targeting Autophagy-Related Epigenetic Regulators for Cancer Drug Discovery” (J Med Chem, 2021).

Legend:
[1] = target: Histone-lysine N-methyltransferase EZH2 (Homo sapiens, UniProt Q15910); experiment: Inhibition of EZH2 (unknown origin) in PRC2 complex using H3 (1 to 24 residues) and 3H-SAM as substrate incubated for 1 hrs by Scintillation proximity assay
[2] = Cmax in Swiss albino mouse plasma at 50 mg/kg,po and measured after 24 hrs; type: ADME, organism-based; set-up: time 24 hrs, dose 50 mg/kg, route po; conditions: in vivo
[3] = Inhibition of GST-tagged […] human GLP (610 to 917 residues) methylation activity expressed in Escherichia coli BL21 assessed as reduction in H3K9me3 level using H3(1 to 20 residues)-cys-biotin and SAM as substrate incubated for 60 mins by Dissociation enhanced lanthanide fluoro-immuno assay

Sequence of Histone-lysine N-methyltransferase EZH2 (Q15910 whole entry, the tested form may be a part): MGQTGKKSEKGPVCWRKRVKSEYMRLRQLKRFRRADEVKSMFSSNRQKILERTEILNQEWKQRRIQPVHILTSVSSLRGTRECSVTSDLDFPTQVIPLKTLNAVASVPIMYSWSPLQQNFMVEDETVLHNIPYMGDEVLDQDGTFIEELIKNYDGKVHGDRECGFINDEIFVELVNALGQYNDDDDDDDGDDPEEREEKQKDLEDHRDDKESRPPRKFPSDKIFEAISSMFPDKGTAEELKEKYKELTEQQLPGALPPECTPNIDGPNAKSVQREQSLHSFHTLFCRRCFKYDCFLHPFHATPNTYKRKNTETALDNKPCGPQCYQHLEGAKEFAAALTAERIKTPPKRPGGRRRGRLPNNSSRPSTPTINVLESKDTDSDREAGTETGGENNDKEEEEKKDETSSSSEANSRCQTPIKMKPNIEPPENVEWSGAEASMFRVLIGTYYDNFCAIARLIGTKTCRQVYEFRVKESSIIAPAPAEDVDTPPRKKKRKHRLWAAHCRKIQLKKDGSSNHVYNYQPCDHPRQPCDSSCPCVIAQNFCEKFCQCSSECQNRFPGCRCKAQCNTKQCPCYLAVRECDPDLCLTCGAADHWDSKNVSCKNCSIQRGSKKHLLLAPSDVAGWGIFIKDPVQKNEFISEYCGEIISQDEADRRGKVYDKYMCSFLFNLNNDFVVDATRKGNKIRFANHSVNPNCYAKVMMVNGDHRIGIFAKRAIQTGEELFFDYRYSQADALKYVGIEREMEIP

Structure (SMILES)	IC50 [1] [µM]	Cmax [2] [µM]	IC50 [3] [µM]
CCCc1cc(C)[nH]c(=O)c1CNC(=O)c1cc(-c2ccc(N3CCN(C(C)C)CC3)nc2)cc2c1cnn2C(C)C	< 0.01	4.7	
COc1cc2nc(N3CCCN(C)CC3)nc(NC3CCN(Cc4ccccc4)CC3)c2cc1OC			38
